Results taken from patent US8536354B2, “Steroidal ligands and their use in gene switch modulation” (Intrexon Corporation, priority 2008, dated 2013).
≈ marks a conversion by molar mass, not a printed value. Where “and” joins values, the source holds several entries; their conditions need not be identical. Equal entries are not always repeated. Where two headings read alike, the source gives them in different places.

Experiments:
[1] = target: T1, wild-type Drosophila melanogaster EcR (DmEcR-DEF) (Drosophila melanogaster, UniProt P34021); test: Two-hybrid gene switch assay, DmEcR-DEF in NIH3T3 cells
T1 sequence (P34021 342-878 limits assumed): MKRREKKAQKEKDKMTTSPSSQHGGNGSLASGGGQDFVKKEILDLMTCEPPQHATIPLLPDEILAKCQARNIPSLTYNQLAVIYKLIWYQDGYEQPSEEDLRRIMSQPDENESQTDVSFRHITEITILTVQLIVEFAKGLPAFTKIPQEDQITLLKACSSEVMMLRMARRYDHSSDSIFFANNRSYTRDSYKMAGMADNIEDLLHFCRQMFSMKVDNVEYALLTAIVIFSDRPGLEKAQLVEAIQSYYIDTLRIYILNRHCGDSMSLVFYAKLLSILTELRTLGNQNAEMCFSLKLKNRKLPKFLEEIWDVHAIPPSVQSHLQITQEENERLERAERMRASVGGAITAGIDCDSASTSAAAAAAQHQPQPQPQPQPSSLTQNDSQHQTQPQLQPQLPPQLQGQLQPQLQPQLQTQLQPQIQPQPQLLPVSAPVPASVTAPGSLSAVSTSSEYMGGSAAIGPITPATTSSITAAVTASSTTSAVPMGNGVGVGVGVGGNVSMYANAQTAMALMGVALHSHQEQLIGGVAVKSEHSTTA

[2] = target: T2, wild-type Aedes aegypti EcR (AaEcR-DEF) (Aedes aegypti, UniProt P49880); test: Two-hybrid gene switch assay, AaEcR-DEF in NIH3T3 cells
T2 sequence (P49880 405-776 limits assumed): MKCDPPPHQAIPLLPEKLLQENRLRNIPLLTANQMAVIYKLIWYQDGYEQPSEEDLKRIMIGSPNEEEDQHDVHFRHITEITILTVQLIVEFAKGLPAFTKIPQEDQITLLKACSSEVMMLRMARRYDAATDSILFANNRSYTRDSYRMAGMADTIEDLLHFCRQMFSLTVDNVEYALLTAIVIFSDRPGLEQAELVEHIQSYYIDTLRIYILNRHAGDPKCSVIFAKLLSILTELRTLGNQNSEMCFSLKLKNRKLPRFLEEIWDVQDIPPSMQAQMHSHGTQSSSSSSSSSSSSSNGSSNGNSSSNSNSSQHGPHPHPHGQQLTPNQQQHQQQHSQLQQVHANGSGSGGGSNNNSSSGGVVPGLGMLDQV

[3] = target: T3, wild-type Choristoneura fumiferana EcR (CfEcR-DEF) (Choristoneura fumiferana, UniProt O77255); test: Two-hybrid gene switch assay, wild-type CfEcR-DEF (GAL4-EcR / VP16-RXR-USP chimera, luciferase) in NIH3T3 cells
T3 sequence (O77255 219-541): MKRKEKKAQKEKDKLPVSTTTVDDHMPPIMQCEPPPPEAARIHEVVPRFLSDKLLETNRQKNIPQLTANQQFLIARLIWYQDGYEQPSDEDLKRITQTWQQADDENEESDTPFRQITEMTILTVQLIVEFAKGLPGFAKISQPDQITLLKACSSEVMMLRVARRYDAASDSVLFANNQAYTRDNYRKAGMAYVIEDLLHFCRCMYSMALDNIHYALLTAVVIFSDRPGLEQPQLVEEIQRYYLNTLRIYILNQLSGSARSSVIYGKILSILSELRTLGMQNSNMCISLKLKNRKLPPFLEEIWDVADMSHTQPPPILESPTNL
T3 sequence (P28702 299-449 partner): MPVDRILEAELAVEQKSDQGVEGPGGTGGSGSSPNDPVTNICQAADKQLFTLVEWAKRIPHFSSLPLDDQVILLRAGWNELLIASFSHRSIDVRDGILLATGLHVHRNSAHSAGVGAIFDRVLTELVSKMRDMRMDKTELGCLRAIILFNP

[4] = tested on: D. melanogaster BII cell line (expresses the ecdysteroid receptor complex EcR-USP); test: Drosophila melanogaster BII cell line bioassay (turbidometric; agonist and antagonist versions)
[5] = target: T4, Manduca sexta EcR (MsEcR) (Manduca sexta, UniProt P49883); test: Two-hybrid gene switch assay, MsEcR-CDEF in NIH3T3 cells; conditions: MsEcR; alternative 3T3 fibroblast cell stock
T4 sequence (P49883 293-531 limits assumed): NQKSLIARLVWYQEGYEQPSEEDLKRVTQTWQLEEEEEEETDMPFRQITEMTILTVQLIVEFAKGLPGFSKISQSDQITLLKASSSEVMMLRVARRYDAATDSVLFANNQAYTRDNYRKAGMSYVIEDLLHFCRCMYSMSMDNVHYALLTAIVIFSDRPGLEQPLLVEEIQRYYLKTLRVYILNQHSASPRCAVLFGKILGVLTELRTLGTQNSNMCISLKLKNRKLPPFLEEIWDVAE

VgEcR/RXR = VgEcR/RXR (Drosophila melanogaster, UniProt P34021, E282G/G283S/G286V)
Sequence of VgEcR/RXR (P34021 whole entry E282G/G283S/G286V): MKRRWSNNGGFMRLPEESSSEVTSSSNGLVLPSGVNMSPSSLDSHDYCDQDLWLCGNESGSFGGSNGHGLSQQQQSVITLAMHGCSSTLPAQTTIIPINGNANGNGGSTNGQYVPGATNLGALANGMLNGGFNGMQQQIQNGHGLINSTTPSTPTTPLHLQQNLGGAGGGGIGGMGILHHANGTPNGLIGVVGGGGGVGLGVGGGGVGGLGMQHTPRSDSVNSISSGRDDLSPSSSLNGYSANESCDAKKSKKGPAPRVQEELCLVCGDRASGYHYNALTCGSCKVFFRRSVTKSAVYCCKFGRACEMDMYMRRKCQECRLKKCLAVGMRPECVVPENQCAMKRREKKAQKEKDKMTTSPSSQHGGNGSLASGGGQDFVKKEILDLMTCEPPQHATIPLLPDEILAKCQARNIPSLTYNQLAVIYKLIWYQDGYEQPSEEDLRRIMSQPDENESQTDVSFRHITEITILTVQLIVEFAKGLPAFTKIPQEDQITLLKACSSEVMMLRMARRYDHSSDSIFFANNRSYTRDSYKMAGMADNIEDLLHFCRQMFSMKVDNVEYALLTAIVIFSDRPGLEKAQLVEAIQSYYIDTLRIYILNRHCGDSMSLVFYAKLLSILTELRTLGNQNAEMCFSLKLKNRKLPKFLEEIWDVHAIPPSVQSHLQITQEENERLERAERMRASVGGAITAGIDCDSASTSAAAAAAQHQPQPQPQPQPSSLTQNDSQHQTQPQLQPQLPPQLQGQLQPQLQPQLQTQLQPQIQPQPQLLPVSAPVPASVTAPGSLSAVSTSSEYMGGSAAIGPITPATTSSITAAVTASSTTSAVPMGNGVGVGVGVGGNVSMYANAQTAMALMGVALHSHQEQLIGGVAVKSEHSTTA
Sequence of VgEcR/RXR (P19793 whole entry, further chain): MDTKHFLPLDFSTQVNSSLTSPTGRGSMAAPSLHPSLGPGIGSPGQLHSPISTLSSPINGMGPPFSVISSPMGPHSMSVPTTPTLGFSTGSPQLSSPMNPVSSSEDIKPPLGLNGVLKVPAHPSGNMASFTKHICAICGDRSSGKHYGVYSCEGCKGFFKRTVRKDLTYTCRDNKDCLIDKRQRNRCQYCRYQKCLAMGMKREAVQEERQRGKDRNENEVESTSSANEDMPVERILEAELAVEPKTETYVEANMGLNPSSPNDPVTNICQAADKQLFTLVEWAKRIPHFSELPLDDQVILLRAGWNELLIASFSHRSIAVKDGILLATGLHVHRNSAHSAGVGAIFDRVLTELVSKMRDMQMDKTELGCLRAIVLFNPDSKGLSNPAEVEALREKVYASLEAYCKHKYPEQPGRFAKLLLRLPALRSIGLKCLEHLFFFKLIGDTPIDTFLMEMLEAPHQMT

[6] = tested on: EcRs (lepidopteran and non-lepidopteran); test: Two-hybrid gene switch assays, statements across the set of ten EcRs in NIH3T3 cells; conditions: for activity across the tested set of EcRs: FIGS. 13 and 14
Bombyx mori EcR (BmEcR) = target: T5, Bombyx mori EcR (BmEcR) (Bombyx mori, UniProt P49881); test: Two-hybrid gene switch assay, BmEcR in NIH3T3 cells; conditions: BmEcR, Example Two; background FI=3
T5 sequence (P49881 352-589 limits assumed): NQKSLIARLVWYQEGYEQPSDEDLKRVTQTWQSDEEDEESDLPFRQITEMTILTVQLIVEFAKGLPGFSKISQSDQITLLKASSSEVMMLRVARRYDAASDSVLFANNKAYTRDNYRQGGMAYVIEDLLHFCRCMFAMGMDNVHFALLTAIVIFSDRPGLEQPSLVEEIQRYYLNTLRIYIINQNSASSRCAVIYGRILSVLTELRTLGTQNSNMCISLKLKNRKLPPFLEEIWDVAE

[7] = Water solubility measurement (saturated solutions, 25° C., UV absorbance)
Description: (§1) Each shake flask was agitated for 60 minutes at room temperature, then allowed to stand for 1 hour at room temperature. […] Absorbance was compared to that of a reference standard at the same absorbance maximum for a 1-2% solution of the same steroid in CH3OH, allowing for up to 10 nM maxima shift due to solvent effect.

[8] = Log D measurement (shake flask, pH 7.4 buffer / octanol); type: physicochemical; conditions: octanol/pH 7.4 buffer (shake flask), pH 7.4 buffer / water-saturated octanol, read-out: Experimental logD
Description: as §1

[9] = target: Bemisia argentifolii EcR (BaEcR-DEF) (Bemisia argentifolii (Bemisia tabaci biotype B / MEAM1), UniProt A0A6M3RDR8); test: Two-hybrid gene switch assay, BaEcR-DEF in NIH3T3 cells
Sequence of Bemisia argentifolii EcR (BaEcR-DEF) (P28702 298-449): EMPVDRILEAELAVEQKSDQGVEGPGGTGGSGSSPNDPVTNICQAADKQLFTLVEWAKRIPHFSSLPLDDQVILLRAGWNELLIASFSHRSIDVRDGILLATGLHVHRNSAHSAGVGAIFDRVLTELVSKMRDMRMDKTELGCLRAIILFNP
Sequence of Bemisia argentifolii EcR (BaEcR-DEF) (A0A6M3RDR8 entry or part of it): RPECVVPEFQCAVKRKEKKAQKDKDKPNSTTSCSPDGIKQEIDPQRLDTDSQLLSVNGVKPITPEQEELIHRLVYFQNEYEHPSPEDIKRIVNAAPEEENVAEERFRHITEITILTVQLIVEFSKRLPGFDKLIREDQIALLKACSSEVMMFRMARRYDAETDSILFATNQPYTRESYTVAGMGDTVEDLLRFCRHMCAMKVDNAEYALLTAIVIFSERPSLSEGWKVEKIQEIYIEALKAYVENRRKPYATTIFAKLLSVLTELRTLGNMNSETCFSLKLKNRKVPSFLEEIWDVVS

[10] = read-out: EC50 (M), BII bioassay results, D. melanogaster BII cell line, turbidometric
[11] = Drosophila melanogaster, read-out: EC50 (M), BII bioassay results
[12] = wt-CfEcR gene switch, NIH3T3, Example One

CO[C@H](CCC(C)C)[C@](C)(O)[C@H]1CC[C@@]2(O)C3=CC(=O)[C@@H]4C[C@@H](O)[C@@H](O)C[C@]4(C)[C@H]3CC[C@]12C [PoA-22-methyl ether]
rel max FI (diacylhydrazine), DM ([1]; DmEcR, relative to 3,5-dimethyl-benzoic acid N-tert-butyl-N′-(2-ethyl-3-methoxy-benzoyl)-hydrazide): ~0.9 | EC50 ([1]; EC50 (μM), DM, DmEcR, NIH3T3 cells, luciferase, 48 h, ligand 0.01-33 μM): ~0.03 µM | rel max FI (diacylhydrazine), AA ([2]; AaEcR, relative to 3,5-dimethyl-benzoic acid N-tert-butyl-N′-(2-ethyl-3-methoxy-benzoyl)-hydrazide): ~0.8 | EC50 ([2]; EC50 (μM), AA, AaEcR, NIH3T3 cells, luciferase, 48 h, ligand 0.01-33 μM): < 0.01 µM | EC50 [3]: ~2 µM | Emax ([3]; NIH3T3, 48 h, read-out: rel max FI (diacylhydrazine), CF): 30 to 65%

CO[C@@H]1C[C@H]2C(=O)C=C3[C@H](CC[C@]4(C)[C@@H]([C@@](C)(O)[C@H](O)CCC(C)(C)O)CC[C@@]34O)[C@@]2(C)C[C@@H]1O [compound 2, 20-hydroxyecdysone, 3-methyl ether]
EC50 [4, 10]: 6e-07 M | potency of ether relative to parent [5]: lose potency

CO[C@H](CCC(C)(C)O)[C@](C)(O)C1CC[C@@]2(O)C3=CC(=O)C4C[C@@H](O)[C@@H](O)CC4(C)C3CCC12C (stereo partly drawn) [compound 4, 20-hydroxyecdysone-22-methyl ether]
BII potency relative to 20E [4]: maintains 20E potency | EC50 [4, 11]: 6.3e-09 M | EC50 ([4]; Drosophila melanogaster, read-out: −log EC50 (converted)): 6.31e-09 M | potency of ether relative to parent [5]: lose potency

CCO[C@H](CCC(C)(C)O)[C@](C)(O)C1CC[C@@]2(O)C3=CC(=O)C4C[C@@H](O)[C@@H](O)CC4(C)C3CCC12C (stereo partly drawn) [compound 5, 20-hydroxyecdysone-22-ethyl ether]
BII potency relative to 20E [4]: slightly less potent than methyl | EC50 [4, 11]: 2.2e-08 M | EC50 [3]: 4.85 µM | activation at 5 µM ([3]; NIH3T3, 48 h, read-out: reporter gene induction, % of maximum fold induction): 77% | RMFI (relative maximum fold induction, relative to diacylhydrazine 30) [3, 12]: 0.77

COC1C[C@H]2C(=O)C=C3[C@H](CC[C@]4(C)[C@@H]([C@@](C)(O)C(CCC(C)(C)O)OC)CC[C@@]34O)[C@@]2(C)CC1O (stereo partly drawn) [compound 12, 20-hydroxyecdysone, 3,22-dimethyl ether]
EC50 [4, 10]: 2.2e-07 M | potency of ether relative to parent [5]: lose potency

CO[C@H](CCC(C)C)[C@](C)(O)[C@H]1CC[C@@]2(O)C3=CC(=O)[C@@H]4C[C@@H](O)[C@@H](O)C[C@]4(C)[C@H]3CC[C@]12C [compound 18, ponasterone A, 22-methyl ether]
EC50 ([1]; EC50, DmEcR gene switch, NIH3T3, Example One): 0.066 µM and ~0.066 µM | EC50 ([2]; EC50, AaEcR gene switch, NIH3T3, Example One): 0.00038 µM | EC50 (VgEcR/RXR; EC50, VgEcR/RXR switch in 3T3 cells): 0.553 µM | EC50 (VgEcR/RXR; EC50, VgEcR/RXR system): 0.533 µM | RMFI (VgEcR/RXR; VgEcR/RXR system): 1.5 | EC50 [4, 11]: 2.2e-08 M | RMFI (relative maximum fold induction, relative to diacylhydrazine 30) [3, 12]: ~0.6

CO[C@H](CCC(C)C)[C@](C)(O)[C@H]1CC[C@@]2(OC)C3=CC(=O)[C@@H]4C[C@@H](O)[C@@H](O)C[C@]4(C)[C@H]3CC[C@]12C [compound 21, ponasterone A, 14,22-dimethyl ether]
EC50 [4, 10]: 1.7e-07 M

CO[C@H](CCC(C)C)[C@](C)(O)C1CC[C@@]2(O)C3=CC(=O)C4C[C@@H](O)[C@@H](O)CC4(C)C3=CCC12C (stereo partly drawn) [compound 22, dacryhainansterone, 22-methyl ether]
EC50 [4, 11]: 1e-07 M | RMFI (relative maximum fold induction, relative to diacylhydrazine 30) [3, 12]: ~0.3

CCC1(O[C@H](CCC(C)(C)O)[C@](C)(O)C2CC[C@@]3(O)C4=CC(=O)C5C[C@@H](O)[C@@H](O)CC5(C)C4CCC23C)CO1 (stereo partly drawn) [compound 23, 20-hydroxyecdysone, 22-(28R,S)-2′-ethyloxiranyl ether]
EC50 [4, 11]: 2.2e-05 M

CCc1c(OC)cccc1C(=O)NN(C(=O)c1cc(C)cc(C)c1)C(C)(C)C [diacylhydrazine 30]
EC50 ([6]; read-out: potency (EC50), lepidopteran receptors): 0.003 to 0.02 µM | potency as activator of AaEcR ([2]; Example Two): single digit nM | diacylhydrazine reference FI (Bombyx mori EcR (BmEcR)): 1776 | solubility ([7]; 25 °C, thermodynamic from solid): 6.2 µg/mL (≈ 16.2 µM) | logD [8]: 3.4 | EC50 [9]: 6 µM | fold induction at 1 µM ([3]; NIH3T3, 48 h, read-out: reference FI (1 microM)): 806

C=C(C)CC[C@@H](O)[C@](C)(O)[C@H]1CC[C@@]2(O)C3=CC(=O)[C@@H]4C[C@@H](O)[C@@H](O)C[C@]4(C)[C@H]3CC[C@]12C [isostachysterone C, 25,26-didehydroponasterone A]
activity across the tested set of EcRs [6]: active

CC(C)CC[C@@H](O)[C@](C)(O)[C@H]1CC[C@@]2(O)C3=CC(=O)[C@]4(O)C[C@@H](O)[C@@H](O)C[C@]4(C)[C@H]3[C@H](O)C[C@]12C [muristerone A]
activity across the tested set of EcRs [6]: active | EC50 ([2]; AaEcR gene switch, NIH3T3, Example One): 0.009 µM | Experimental aqueous solubility ([7]; 25° C.): > 2900 µg/mL | EC50 (VgEcR/RXR; VgEcR/RXR switch in 3T3 cells): 0.851 µM | EC50 (VgEcR/RXR; VgEcR/RXR system): 0.851 µM | RMFI (VgEcR/RXR; VgEcR/RXR system): 1.3 | EC50 [3, 12]: 7.4 µM
